Reference: PubChem BioAssay AID1259407 (Chemical Carcinogenesis Research Information System (CCRIS), 2018)
Active and inactive are the calls of the source. How the calls were made is not given here.

Tested on: CCRIS mutagenicity, Ames/micronucleus/aberration tests
Assay: CCRIS mutagenicity studies
[1] = Test System: AMES SALMONELLA TYPHIMURIUM, Strain/Indicator: TA100, Metabolic Activation: NONE, Method: PREINCUBATION
[2] = Test System: AMES SALMONELLA TYPHIMURIUM, Strain/Indicator: TA98, Metabolic Activation: NONE, Method: STANDARD PLATE
[3] = Test System: AMES SALMONELLA TYPHIMURIUM, Strain/Indicator: TA100, Metabolic Activation: NONE, Method: STANDARD PLATE
[4] = Test System: AMES SALMONELLA TYPHIMURIUM, Strain/Indicator: TA1537, Metabolic Activation: NONE, Method: STANDARD PLATE
[5] = Test System: AMES SALMONELLA TYPHIMURIUM, Strain/Indicator: TA1538, Metabolic Activation: NONE, Method: STANDARD PLATE
[6] = Test System: AMES SALMONELLA TYPHIMURIUM, Strain/Indicator: TA98, Metabolic Activation: RAT, LIVER, S-9, PHENOBARBITAL, Method: STANDARD PLATE
[7] = Test System: AMES SALMONELLA TYPHIMURIUM, Strain/Indicator: TA100, Metabolic Activation: RAT, LIVER, S-9, PHENOBARBITAL, Method: STANDARD PLATE

With `CC(O)CN(CC(C)O)N=O` (configuration not stated) the mutagenic call (Test System: AMES SALMONELLA TYPHIMURIUM, Strain/Indicator: TA100, Metabolic Activation: HAMSTER, LIVER, S-9, 3-METHYLCHOLANTHRENE, Method: PREINCUBATION) was “inactive; negative”, the mutagenic call (Test System: AMES SALMONELLA TYPHIMURIUM, Strain/Indicator: TA100, Metabolic Activation: HAMSTER, LIVER, S-9, PHENOBARBITAL, Method: PREINCUBATION) was “active; positive” and the mutagenic call (Test System: AMES SALMONELLA TYPHIMURIUM, Strain/Indicator: TA100, Metabolic Activation: HAMSTER, LIVER, S-9, Method: PREINCUBATION) was “inactive; negative”. For the same compound, the mutagenic call (Test System: AMES SALMONELLA TYPHIMURIUM, Strain/Indicator: TA100, Metabolic Activation: HUMAN, LIVER, S-9, Method: PREINCUBATION) was “inactive; negative”, the mutagenic call (Test System: AMES SALMONELLA TYPHIMURIUM, Strain/Indicator: TA100, Metabolic Activation: MONKEY, LIVER, S-9, Method: PREINCUBATION) was “inactive; negative” and the mutagenic call (Test System: AMES SALMONELLA TYPHIMURIUM, Strain/Indicator: TA100, Metabolic Activation: MOUSE, LIVER, S-9, 3-METHYLCHOLANTHRENE, Method: PREINCUBATION) was “inactive; negative”. The mutagenic call (Test System: AMES SALMONELLA TYPHIMURIUM, Strain/Indicator: TA100, Metabolic Activation: MOUSE, LIVER, S-9, PHENOBARBITAL, Method: PREINCUBATION) was “active; positive”, the mutagenic call (Test System: AMES SALMONELLA TYPHIMURIUM, Strain/Indicator: TA100, Metabolic Activation: MOUSE, LIVER, S-9, Method: PREINCUBATION) was “inactive; negative” and the mutagenic call [1] was “inactive; negative”. The mutagenic call (Test System: AMES SALMONELLA TYPHIMURIUM, Strain/Indicator: TA100, Metabolic Activation: RABBIT, LIVER, S-9, Method: PREINCUBATION) was “inactive; negative”, the mutagenic call (Test System: AMES SALMONELLA TYPHIMURIUM, Strain/Indicator: TA100, Metabolic Activation: RAT, LIVER, CYTOSOL, PCB, Method: PREINCUBATION) was “inactive; negative” and the mutagenic call (Test System: AMES SALMONELLA TYPHIMURIUM, Strain/Indicator: TA100, Metabolic Activation: RAT, LIVER, MICROSOMES AND CYTOSOL, PCB, Method: PREINCUBATION) was “active; positive”. For the same compound, the mutagenic call (Test System: AMES SALMONELLA TYPHIMURIUM, Strain/Indicator: TA100, Metabolic Activation: RAT, LIVER, MICROSOMES AND G6PDH, PCB, Method: PREINCUBATION) was “active; positive”, the mutagenic call (Test System: AMES SALMONELLA TYPHIMURIUM, Strain/Indicator: TA100, Metabolic Activation: RAT, LIVER, MICROSOMES, PCB, Method: PREINCUBATION) was “inactive; negative” and the mutagenic call (Test System: AMES SALMONELLA TYPHIMURIUM, Strain/Indicator: TA100, Metabolic Activation: RAT, LIVER, S-9 (HEATED), PCB, Method: PREINCUBATION) was “inactive; negative”. For the same compound, the mutagenic call (Test System: AMES SALMONELLA TYPHIMURIUM, Strain/Indicator: TA100, Metabolic Activation: RAT, LIVER, S-9 (WITHOUT NADP+), PCB, Method: PREINCUBATION) was “inactive; negative”, the mutagenic call (Test System: AMES SALMONELLA TYPHIMURIUM, Strain/Indicator: TA100, Metabolic Activation: RAT, LIVER, S-9, 3-METHYLCHOLANTHRENE, Method: PREINCUBATION) was “inactive; negative” and the mutagenic call (Test System: AMES SALMONELLA TYPHIMURIUM, Strain/Indicator: TA100, Metabolic Activation: RAT, LIVER, S-9, AROCLOR 1254, Method: PREINCUBATION) was “active; positive”. For the same compound, the mutagenic call (Test System: AMES SALMONELLA TYPHIMURIUM, Strain/Indicator: TA100, Metabolic Activation: RAT, LIVER, S-9, PCB, Method: PREINCUBATION) was “active; positive”, the mutagenic call (Test System: AMES SALMONELLA TYPHIMURIUM, Strain/Indicator: TA100, Metabolic Activation: RAT, LIVER, S-9, PHENOBARBITAL, Method: PREINCUBATION) was “active; positive” and the mutagenic call (Test System: AMES SALMONELLA TYPHIMURIUM, Strain/Indicator: TA100, Metabolic Activation: RAT, LIVER, S-9, Method: PREINCUBATION) was “inactive; negative”. The mutagenic call (Test System: AMES SALMONELLA TYPHIMURIUM, Strain/Indicator: TA100, Method: PREINCUBATION) was “active; positive”, the mutagenic call (Test System: AMES SALMONELLA TYPHIMURIUM, Strain/Indicator: TA104, Metabolic Activation: RAT, LIVER, S-9, AROCLOR 1254, Method: PREINCUBATION) was “inactive; negative” and the mutagenic call (Test System: AMES SALMONELLA TYPHIMURIUM, Strain/Indicator: TA1535, Metabolic Activation: RAT, LIVER, S-9, AROCLOR 1254, Method: PREINCUBATION) was “active; positive”. For the same compound, the mutagenic call (Test System: AMES SALMONELLA TYPHIMURIUM, Strain/Indicator: TA1975, Metabolic Activation: RAT, LIVER, S-9, AROCLOR 1254, Method: PREINCUBATION) was “active; positive” and the mutagenic call (Test System: CHINESE HAMSTER V-79, Strain/Indicator: V-79/OUABAIN, Metabolic Activation: HAMSTER, HEPATOCYTES, Method: CELL-MEDIATED) was “active; positive”.

For `Cn1c(N)nc2nc3cccnc3cc21`, the mutagenic call (Test System: AMES SALMONELLA TYPHIMURIUM, Strain/Indicator: TA98, Metabolic Activation: RAT, LIVER, S-9, AROCLOR 1254A, Method: STANDARD PLATE) was “inactive; negative” and the mutagenic call (Test System: AMES SALMONELLA TYPHIMURIUM, Strain/Indicator: YG1024, Metabolic Activation: RAT, LIVER, S-9, AROCLOR 1254A, Method: STANDARD PLATE) was “active; positive”.

In the case of `O=c1cccc2cc(O)c(O)c(O)c2c1O`, the mutagenic call (Test System: AMES SALMONELLA TYPHIMURIUM, Strain/Indicator: TA2638, Metabolic Activation: S-9, Method: STANDARD PLATE) is reported as “inactive; negative”.

For `O=C(O)CN(CCN(CC(=O)O)Cc1ccccc1O)Cc1ccccc1O`, the mutagenic call (Test System: Mouse lymphoma, Strain/Indicator: L5178Y (tk+/tk-), Metabolic Activation: None, Method: Suspension/plate) was “active; positive” and the mutagenic call (Test System: Mouse lymphoma, Strain/Indicator: L5178Y (tk+/tk-), Metabolic Activation: Rat, Liver, S-9, Aroclor 1254, Method: Suspension/plate) was “active; positive”.

For `O=C(NC(=S)NNC(=O)c1cc(O)ccc1O)c1ccccc1`, the mutagenic call (Test System: AMES SALMONELLA TYPHIMURIUM, Strain/Indicator: TA1530, Metabolic Activation: NONE, Method: STANDARD PLATE) was “active; positive”.

With `CCN(CCCl)CCCNc1c2ccccc2nc2ccccc12` the mutagenic call [2] was “active; positive”, the mutagenic call [3] was “active; positive” and the mutagenic call (Test System: AMES SALMONELLA TYPHIMURIUM, Strain/Indicator: TA1535, Metabolic Activation: NONE, Method: STANDARD PLATE) was “inactive; negative”. For the same compound, the mutagenic call (Test System: AMES SALMONELLA TYPHIMURIUM, Strain/Indicator: TA1536, Metabolic Activation: NONE, Method: STANDARD PLATE) was “active; positive”, the mutagenic call [4] was “active; positive” and the mutagenic call [5] was “active; positive”.

For `CC(=O)Nc1ccc2[nH]c3ccccc3c2c1[N+](=O)[O-]`, the mutagenic call [2] was “active; positive”, the mutagenic call [6] was “active; positive” and the mutagenic call [3] was “inactive; negative”. For the same compound, the mutagenic call [7] was “inactive; negative”, the mutagenic call [4] was “inactive; negative” and the mutagenic call (Test System: AMES SALMONELLA TYPHIMURIUM, Strain/Indicator: TA1537, Metabolic Activation: RAT, LIVER, S-9, PHENOBARBITAL, Method: STANDARD PLATE) was “inactive; negative”. The mutagenic call [5] was “active; positive”, the mutagenic call (Test System: AMES SALMONELLA TYPHIMURIUM, Strain/Indicator: TA1538, Metabolic Activation: RAT, LIVER, S-9, PHENOBARBITAL, Method: STANDARD PLATE) was “active; positive” and the mutagenic call (Test System: AMES SALMONELLA TYPHIMURIUM, Strain/Indicator: TA1977, Metabolic Activation: NONE, Method: STANDARD PLATE) was “inactive; negative”. For the same compound, the mutagenic call (Test System: AMES SALMONELLA TYPHIMURIUM, Strain/Indicator: TA1977, Metabolic Activation: RAT, LIVER, S-9, PHENOBARBITAL, Method: STANDARD PLATE) was “inactive; negative”.

For `c1ccc2c(c1)c1cccc3c4ccccc4c4cccc2c4c13`, the mutagenic call (Test System: HUMAN H1A1V2 CELLS, Strain/Indicator: TK LOCUS, Metabolic Activation: NONE, Method: SUSPENSION/PLATE) was “active; positive”.

`CC\C=C/C=C\C=C/C=C\C=C/OCCC` was tested, and the mutagenic call [1] was “active; positive”.

`COc1c2ccoc2nc2c(OC)c(OCC3OC3(C)C)ccc12` (configuration not stated) was tested, and the mutagenic call [6] was “inactive; negative” and the mutagenic call [7] was “inactive; negative”.
